Test results taken from US20260159499A1, “COMPOUND AS FAK INHIBITOR AND USE THEREOF” (WIGEN BIOMEDICINE TECHNOLOGY (SHANGHAI) CO., LTD., priority 2021, published 2026).

Legend:
FAK recombinant protein = FAK recombinant protein (Homo sapiens, UniProt Q05397); experiment: Inhibitory activity against FAK enzyme; assay type: biochemical; settings: TK substrate, ATP
Experimental: The compound serially diluted with DMSO and a FAK recombinant protein were mixed, and the mixture was left to stand at room temperature for 10 min. A biotin-labeled TK substrate (TK) and ATP were then added. […] After the mixture was incubated at room temperature for 1 h, the fluorescence intensity at 615 nm and 665 nm was measured. The ratio of the fluorescence intensity at 665 nm and 615 nm was calculated. The inhibition percentages and IC50 of the compounds were calculated compared to the DMSO control group.

PC3 cells [1] = experiment: PC3 cell proliferation, 2D activity detection; assay type: cell-based, human; settings: Homo sapiens, PC-3; PC3, 2D, 72 h, class symbol; read-out: 2D IC50 against PC3 cells
Experimental: 2D activity detection: 1200 PC3 cells were seeded in a 96-well plate. After overnight adherence culture, the compound serially diluted was added. 72 h after addition, Cell Titer-Lumi (Beyotime C0068XL) was added to measure the ATP content in the cells. The growth of the cells was evaluated, and IC50 of the compounds against cell growth was calculated.

PC3 cells [2] = experiment: PC3 cell proliferation, 3D activity detection; assay type: cell-based, human; settings: Homo sapiens, PC-3, 336 h; PC3, 3D culture, 14 days, class symbol; read-out: 3D IC50 against PC3 cells
Experimental: 3D activity detection: PC3 cells were seeded in a 96-well plate at 1200 cells/well, and 3D culture was performed. 14 days after the compound serially diluted was added, the growth of the cells was determined. The inhibition percentage and IC50 of the compound were calculated compared to the DMSO control group.

Sequence of FAK recombinant protein (Q05397 whole entry, species assumed): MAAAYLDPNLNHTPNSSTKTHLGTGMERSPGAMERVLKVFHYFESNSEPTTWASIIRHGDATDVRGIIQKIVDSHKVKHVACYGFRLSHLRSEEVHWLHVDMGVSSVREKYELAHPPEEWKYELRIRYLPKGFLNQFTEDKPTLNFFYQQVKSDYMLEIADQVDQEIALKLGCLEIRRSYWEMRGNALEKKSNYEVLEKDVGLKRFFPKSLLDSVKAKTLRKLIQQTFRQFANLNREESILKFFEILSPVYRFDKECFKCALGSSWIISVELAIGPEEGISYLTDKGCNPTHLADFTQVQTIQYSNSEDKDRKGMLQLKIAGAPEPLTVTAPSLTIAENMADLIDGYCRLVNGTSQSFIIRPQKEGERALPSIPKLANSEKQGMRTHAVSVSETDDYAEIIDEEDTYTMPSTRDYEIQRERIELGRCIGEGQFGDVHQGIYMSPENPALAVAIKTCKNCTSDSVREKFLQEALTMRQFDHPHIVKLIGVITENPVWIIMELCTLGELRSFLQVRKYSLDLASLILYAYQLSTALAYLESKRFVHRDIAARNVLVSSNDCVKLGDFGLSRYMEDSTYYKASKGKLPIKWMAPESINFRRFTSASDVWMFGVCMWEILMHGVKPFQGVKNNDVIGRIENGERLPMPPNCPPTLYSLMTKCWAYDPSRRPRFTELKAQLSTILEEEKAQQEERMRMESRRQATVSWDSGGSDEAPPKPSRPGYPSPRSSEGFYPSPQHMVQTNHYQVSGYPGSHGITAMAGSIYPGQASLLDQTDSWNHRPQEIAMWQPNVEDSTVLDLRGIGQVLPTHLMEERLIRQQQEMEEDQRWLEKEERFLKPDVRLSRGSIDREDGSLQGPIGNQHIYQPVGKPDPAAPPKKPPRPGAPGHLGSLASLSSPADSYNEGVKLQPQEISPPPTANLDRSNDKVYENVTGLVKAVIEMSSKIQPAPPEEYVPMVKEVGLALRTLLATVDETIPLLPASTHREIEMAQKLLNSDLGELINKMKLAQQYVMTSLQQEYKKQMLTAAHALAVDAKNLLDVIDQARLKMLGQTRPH

SMILES | IC50 (FAK recombinant protein) [nM] | IC50 (PC3 cells [1]) [nM] | IC50 (PC3 cells [2]) [nM]
COc1cc(C(=O)NC2CCC3(CC2)CN(C)C3)c(F)cc1Nc1ncc(C(F)(F)F)c(Cc2cccc3c2C(=O)N(C)C3)n1 [Compound 50] | < 10 | > 2000 | 5 to 50
COc1cc(C(=O)NC2CCC3(CC2)CCN(C)C3)c(F)cc1Nc1ncc(C(F)(F)F)c(Cc2cccc3c2C(=O)N(C)C3)n1 (stereo not drawn) [Compound 53] | < 10 | > 2000 | 5 to 50
COc1cc(C(=O)NC2CCC3(CC2)CCN(C)CC3)c(F)cc1Nc1ncc(C(F)(F)F)c(Cc2cccc3c2C(=O)N(C)C3)n1 [Compound 54] | 10 to 50 | > 2000 | 5 to 50
COc1cc(C(=O)NC2CC3(CCN(C)CC3)C2)c(Cl)cc1Nc1ncc(C(F)(F)F)c(Cc2cccc3c2C(=O)N(C)C3)n1 [Compound 55] | < 10 | > 2000 | < 5
COc1cc(C(=O)NC2CCC3(CC2)CN(C)C3)c(Cl)cc1Nc1ncc(C(F)(F)F)c(Cc2cccc3c2C(=O)N(C)C3)n1 [Compound 56] | < 10 | > 2000 | 5 to 50
COc1cc(C(=O)NC2CC3(CCN(C)CC3)C2)ccc1Nc1ncc(C(F)(F)F)c(Cc2cccc3c2C(=O)N(C)C3)n1 [Compound 57] | < 10 | > 2000 | < 5
COc1cc(C(=O)NC2CCC3(CC2)CN(C)C3)ccc1Nc1ncc(C(F)(F)F)c(Cc2cccc3c2C(=O)N(C)C3)n1 [Compound 58] | < 10 | > 2000 | 5 to 50
COc1cc(N2CCC3(CCN(C)CC3)C2=O)c(F)cc1Nc1ncc(C(F)(F)F)c(Oc2cccc3c2C(=O)N(C)C3)n1 [Compound 61, 2-(2-fluoro-5-methoxy-4-((4-((2-methyl-3-oxoisoindol-4-yl)oxy)-5-(trifluoromethyl)pyrimidin-2-yl)amino)phenyl)-8-methyl-2,8-diazaspiro[4.5]decan-1-one] | < 10 | > 2000 | 5 to 50
COc1cc(N2CC3(CCN(C)CC3)OC2=O)c(F)cc1Nc1ncc(C(F)(F)F)c(Oc2cccc3c2C(=O)N(C)C3)n1 [Compound 63] | 10 to 50 | > 2000 | 5 to 50
COc1cc(N2CC3(CCC2=O)CCN(C)CC3)c(F)cc1Nc1ncc(C(F)(F)F)c(Oc2cccc3c2C(=O)N(C)C3)n1 [Compound 65] | > 50 | > 2000 | > 50
COc1cc(C2=NOC3(CCN(C)CC3)C2)ccc1Nc1ncc(C(F)(F)F)c(Oc2cccc3c2C(=O)N(C)C3)n1 [Compound 68] | 10 to 50 | > 2000 | 5 to 50
COc1cc(C(=O)NC2CC3(CCN(C)CC3)C2)c(F)cc1Nc1ncc(C(F)(F)F)c(Oc2cccc3c2C(=O)N(C)C3C)n1 (stereo not drawn) [Compound 70, 4-((4-((1,2-dimethyl-3-oxoisoindol-4-yl)oxy)-5-(trifluoromethyl)pyrimidin-2-yl)amino)-2-fluoro-5-methoxy-N-(7-methyl-7-azaspiro[3.5]nonan-2-yl)benzamide] | < 10 | > 2000 | < 5
COc1cc(C(=O)NC2CC3(CCN(C)CC3)C2)ccc1Nc1ncc(C(F)(F)F)c(Oc2cccc3c2C(=O)N(C)C3C)n1 (stereo not drawn) [Compound 72] | < 10 | > 2000 | < 5
COc1cc(C(=O)NC2CCC3(CC2)CN(C)C3)ccc1Nc1ncc(C(F)(F)F)c(Oc2cccc3c2C(=O)N(C)C3C)n1 (stereo not drawn) [Compound 73] | < 10 | > 2000 | 5 to 50
COc1cc(C(=O)NC2CC3(CCN(C)CC3)C2)c(F)cc1Nc1ncc(C(F)(F)F)c(Cc2cccc3c2C(=O)N(C)C3C)n1 (stereo not drawn) [Compound 74, 4-((4-((1,2-dimethyl-3-oxoisoindol-4-yl)methyl)-5-(trifluoromethyl)pyrimidin-2-yl)amino)-2-fluoro-5-methoxy-N-(7-methyl-7-azaspiro[3.5]nonan-2-yl)benzamide] | < 10 | > 2000 | 5 to 50
COc1cc(C(=O)NC2CC3(CCN(C)CC3)C2)ccc1Nc1ncc(C(F)(F)F)c(Cc2cccc3c2C(=O)N(C)C3C)n1 (stereo not drawn) [Compound 75] | < 10 | > 2000 | 5 to 50
COc1cc(C(=O)NC2CC3(CCN(C)CC3)C2)c(F)cc1Nc1ncc(C(F)(F)F)c(Oc2cccc3c2C(=O)N(C)C3(C)C)n1 [Compound 76] | < 10 | > 2000 | 5 to 50
COc1cc(C(=O)NC2CCC3(CC2)CN(C)C3)c(F)cc1Nc1ncc(C(F)(F)F)c(Oc2cccc3c2C(=O)N(C)C3(C)C)n1 [Compound 77] | < 10 | > 2000 | 5 to 50
COc1cc(C(=O)NC2CC3(CCN(C)CC3)C2)ccc1Nc1ncc(C(F)(F)F)c(Oc2cccc3c2C(=O)N(C)C3(C)C)n1 [Compound 78] | < 10 | > 2000 | 5 to 50

SMILES | IC50 (FAK recombinant protein) [nM] | IC50 (PC3 cells [1]) [nM] | IC50 (PC3 cells [2]) [nM]
COc1cc(C(=O)NC2CC3(CCN(C)CC3)C2)c(F)cc1Nc1ncc(C(F)(F)F)c(Oc2cccc3c2C(=O)N(OC)C3)n1 [Compound 79] | < 10 | > 2000 | < 5
COc1cc(C(=O)NC2CC3(CCN(C)CC3)C2)ccc1Nc1ncc(C(F)(F)F)c(Oc2cccc3c2C(=O)N(OC)C3)n1 [Compound 81] | < 10 | > 2000 | < 5
COc1cc(C(=O)NC2CC3(CCN(C)CC3)C2)c(F)cc1Nc1ncc(C(F)(F)F)c(Oc2cccc3c2C(=O)CC3)n1 [Compound 82] | < 10 | > 2000 | 5 to 50
COc1cc(C(=O)NC2CC3(CCN(C)CC3)C2)ccc1Nc1ncc(C(F)(F)F)c(Oc2cccc3c2C(=O)CC3)n1 [Compound 83] | < 10 | > 2000 | 5 to 50
COc1cc(C(=O)NC2CC3(CCN(C)CC3)C2)c(F)cc1Nc1ncc(C(F)(F)F)c(Cc2cccc3c2C(=O)CC3)n1 [Compound 84] | < 10 | > 2000 | 5 to 50
CCc1cc(C(=O)NC2CC3(CCN(C)CC3)C2)c(F)cc1Nc1ncc(C(F)(F)F)c(Oc2cccc3c2C(=O)N(C)C3)n1 [Compound 85, 2-fluoro-4-((4-((2-methyl-3-oxoisoindol-4-yl)oxy)-5-(trifluoromethyl)pyrimidin-2-yl)amino)-N-(7-methyl-7-azaspiro[3.5]nonan-2-yl)-5-ethylbenzamide] | 10 to 50 | > 2000 | 5 to 50
COc1cc(C(=O)NC2CC3(CCN(C)CC3)C2)c(-c2cnn(C)c2)cc1Nc1ncc(C(F)(F)F)c(Oc2cccc3c2C(=O)N(C)C3)n1 [Compound 88] | 10 to 50 | > 2000 | 5 to 50
COc1cc(N2CCC3(CC2)CN(C)C3)c(F)cc1Nc1ncc(C(F)(F)F)c(Oc2cccc3c2C(=O)N(C)C3)n1 [Compound 91] | < 10 | > 2000 | < 5
COc1cc(N2CCC3(CCN(C)CC3)CC2)c(F)cc1Nc1ncc(C(F)(F)F)c(Oc2cccc3c2C(=O)N(C)C3)n1 [Compound 93] | < 10 | > 2000 | < 5
COc1cc(N2CCC3(CCN(C)C3)CC2)ccc1Nc1ncc(C(F)(F)F)c(Oc2cccc3c2C(=O)N(C)C3)n1 [Compound 95] | < 10 | > 2000 | < 5
COc1cc(N2CCC3(CCN(C)CC3)C2)ccc1Nc1ncc(C(F)(F)F)c(Oc2cccc3c2C(=O)N(C)C3)n1 [Compound 96] | < 10 | > 2000 | < 5
COc1cc(N2CCC23CCN(C)CC3)ccc1Nc1ncc(C(F)(F)F)c(Oc2cccc3c2C(=O)N(C)C3)n1 [Compound 97] | < 10 | > 2000 | < 5
COc1cc(N2CCC3(CCN(C)C3)C2)ccc1Nc1ncc(C(F)(F)F)c(Oc2cccc3c2C(=O)N(C)C3)n1 (stereo not drawn) [Compound 98] | < 10 | > 2000 | < 5
CCN1CCC2(CC1)CN(c1ccc(Nc3ncc(C(F)(F)F)c(Oc4cccc5c4C(=O)N(C)C5)n3)c(OC)c1)C2 [Compound 103] | < 10 | > 2000 | < 5
COc1cc(N2CC3(CCN(C4CC4)CC3)C2)ccc1Nc1ncc(C(F)(F)F)c(Oc2cccc3c2C(=O)N(C)C3)n1 [Compound 104] | < 10 | > 2000 | < 5
COc1cc(N2CC3(CCN(C4CCC4)CC3)C2)ccc1Nc1ncc(C(F)(F)F)c(Oc2cccc3c2C(=O)N(C)C3)n1 [Compound 105] | < 10 | > 2000 | < 5
COc1cc(N2CC3(CCN(CC4CC4)CC3)C2)ccc1Nc1ncc(C(F)(F)F)c(Oc2cccc3c2C(=O)N(C)C3)n1 [Compound 106] | < 10 | > 2000 | < 5
COc1cc(N2CC3(CCNCC3)C2)c(F)cc1Nc1ncc(C(F)(F)F)c(Oc2cccc3c2C(=O)N(C)C3)n1 [Compound 107, 7-((2-((5-fluoro-2-methoxy-4-(2,7-diazaspiro[3.5]non-2-yl)phenyl)amino)-5-(trifluoromethyl)pyrimidin-4-yl)oxy)-2-methylisoindolin-1-one] | < 10 | > 2000 | < 5
